Active and inactive are the calls of the source. No cut-off for these calls is given here.
Assays:
Rattus norvegicus [1] = assay: Antiinflammatory activity against rat assessed as inhibition of carrageenan-induced edema; assay type: functional
Rattus norvegicus [2] = assay: Antiinflammatory activity against rat assessed as inhibition of carrageenan-induced edema at 75 mg/kg; assay type: functional

Compound | Activity (Rattus norvegicus [1]) | ED25 (Rattus norvegicus [1]) | inhibition in vivo at 75 mg/kg (Rattus norvegicus [2])
C[C@@H]1O[C@@H](O[C@H]2[C@H](Oc3cc(O)c4c(c3)O[C@H](c3ccc(O)cc3)CC4=O)O[C@H](CO)[C@@H](O)[C@@H]2O)[C@H](O)[C@H](O)[C@H]1O | inactive |  | 
C[C@]12CCC(=O)C=C1CC[C@@H]1[C@@H]2[C@@H](O)C[C@@]2(C)[C@H]1CC[C@]2(O)C(=O)COP(=O)(O)O [HYDROCORTISONE PHOSPHORIC ACID] |  | 13.5 mg/kg | 
COc1ccc(-c2cc(=O)c3c(OC)c(OC)c(OC)c(OC)c3o2)cc1OC [NOBILETIN] |  | 20 mg/kg | 
COc1ccc(-c2cc(=O)c3c(O)cc(OC)cc3o2)cc1 [APIGENIN DIMETHYLETHER] |  | 75 mg/kg | 25%
CCCCC1C(=O)N(c2ccccc2)N(c2ccccc2)C1=O [PHENYLBUTAZONE] |  |  | 81%

From ChEMBL document CHEMBL1151637, “A flavone with antiinflammatory activity from the roots of Rhus undulata” (1984)
